Experimental data published in PubChem BioAssay (NCI).
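Five concentrations, 48 hours, 96-well plates. TGI marks complete inhibition of growth.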

What was measured:
Assay in all cases: NCI tumour cell line growth inhibition, 48 h
SK-MEL-2 melanoma = tested on: SK-MEL-2 melanoma
SNB-19 CNS = tested on: SNB-19 CNS
SK-OV-3 ovarian = tested on: SK-OV-3 ovarian
SNB-78 CNS = tested on: SNB-78 CNS
OVCAR-4 ovarian = tested on: OVCAR-4 ovarian
DLD-1 colon = tested on: DLD-1 colon
NCI-H460 lung = tested on: NCI-H460 lung
OVCAR-8 ovarian = tested on: OVCAR-8 ovarian
HT29 colon = tested on: HT29 colon
UACC-62 melanoma = tested on: UACC-62 melanoma
DMS 273 small cell lung = tested on: DMS 273 small cell lung
OVCAR-3 ovarian = tested on: OVCAR-3 ovarian
K-562 leukemia = tested on: K-562 leukemia
SF-295 CNS = tested on: SF-295 CNS
HOP-18 NSCLC = tested on: HOP-18 NSCLC
HCT-116 colon = tested on: HCT-116 colon
RXF 393 renal = tested on: RXF 393 renal
SK-MEL-28 melanoma = tested on: SK-MEL-28 melanoma
HL-60(TB) leukemia = tested on: HL-60(TB) leukemia
SF-268 CNS = tested on: SF-268 CNS
IGROV1 ovarian = tested on: IGROV1 ovarian
SNB-75 CNS = tested on: SNB-75 CNS
U251 CNS = tested on: U251 CNS
HCC-2998 colon = tested on: HCC-2998 colon
A498 renal = tested on: A498 renal
UO-31 renal = tested on: UO-31 renal
UACC-257 melanoma = tested on: UACC-257 melanoma
EKVX NSCLC = tested on: EKVX NSCLC
CCRF-CEM leukemia = tested on: CCRF-CEM leukemia
SK-MEL-5 melanoma = tested on: SK-MEL-5 melanoma
SF-539 CNS = tested on: SF-539 CNS
SN12K1 renal = tested on: SN12K1 renal
NCI-H226 lung = tested on: NCI-H226 lung
P388/ADR leukemia = tested on: P388/ADR leukemia
HCT-15 colon = tested on: HCT-15 colon
MCF7 breast = tested on: MCF7 breast
LOX IMVI melanoma = tested on: LOX IMVI melanoma
NCI/ADR-RES ovarian = tested on: NCI/ADR-RES ovarian
SW-620 colon = tested on: SW-620 colon
HOP-92 NSCLC = tested on: HOP-92 NSCLC
NCI-H23 lung = tested on: NCI-H23 lung
OVCAR-5 ovarian = tested on: OVCAR-5 ovarian
MALME-3M melanoma = tested on: MALME-3M melanoma
RPMI-8226 leukemia = tested on: RPMI-8226 leukemia
KM20L2 colon = tested on: KM20L2 colon
DMS 114 small cell lung = tested on: DMS 114 small cell lung
NCI-H522 lung = tested on: NCI-H522 lung
COLO 205 colon = tested on: COLO 205 colon
KM12 colon = tested on: KM12 colon
M19-MEL melanoma = tested on: M19-MEL melanoma
MOLT-4 leukemia = tested on: MOLT-4 leukemia
A549 NSCLC = tested on: A549 NSCLC
CAKI-1 renal = tested on: CAKI-1 renal
SN12C renal = tested on: SN12C renal
XF 498 CNS = tested on: XF 498 CNS
P388 leukemia = tested on: P388 leukemia
HOP-62 NSCLC = tested on: HOP-62 NSCLC

In the case of `COc1ccc2c3c1OC1CC(O)C=CC31CCN(C)C2` (configuration not stated), the TGI (SK-MEL-2 melanoma) is reported as > 150 µM, the TGI (SNB-19 CNS) is reported as > 150 µM and the TGI (SK-OV-3 ovarian) is reported as > 150 µM. The TGI (SNB-78 CNS) was > 117 µM, the TGI (OVCAR-4 ovarian) was > 150 µM and the TGI (DLD-1 colon) was > 54.1 µM. For the same molecule, the TGI (NCI-H460 lung) was > 150 µM, the TGI (OVCAR-8 ovarian) was > 15 µM and the TGI (HT29 colon) was > 150 µM. For the same molecule, the TGI (UACC-62 melanoma) was > 150 µM, the TGI (DMS 273 small cell lung) was > 150 µM and the TGI (OVCAR-3 ovarian) was > 150 µM. The TGI (K-562 leukemia) was > 150 µM, the TGI (SF-295 CNS) was > 150 µM and the TGI (HOP-18 NSCLC) was > 150 µM. The TGI (HCT-116 colon) was > 150 µM, the TGI (RXF 393 renal) was > 150 µM and the TGI (SK-MEL-28 melanoma) was > 150 µM. For the same molecule, the TGI (HL-60(TB) leukemia) was > 150 µM, the TGI (SF-268 CNS) was > 91.8 µM and the TGI (IGROV1 ovarian) was > 150 µM. For the same molecule, the TGI (SNB-75 CNS) was > 150 µM, the TGI (U251 CNS) was > 150 µM and the TGI (HCC-2998 colon) was > 150 µM. The TGI (A498 renal) was > 150 µM, the TGI (UO-31 renal) was > 150 µM and the TGI (UACC-257 melanoma) was > 150 µM. The TGI (EKVX NSCLC) was > 150 µM, the TGI (CCRF-CEM leukemia) was > 150 µM and the TGI (SK-MEL-5 melanoma) was > 150 µM. The TGI (SF-539 CNS) was > 33.8 µM, the TGI (SN12K1 renal) was > 150 µM and the TGI (NCI-H226 lung) was > 150 µM. The TGI (P388/ADR leukemia) was > 150 µM, the TGI (HCT-15 colon) was > 150 µM and the TGI (MCF7 breast) was > 48.8 µM. The TGI (LOX IMVI melanoma) was > 150 µM, the TGI (NCI/ADR-RES ovarian) was > 150 µM and the TGI (SW-620 colon) was > 150 µM. The TGI (HOP-92 NSCLC) was > 150 µM, the TGI (NCI-H23 lung) was > 150 µM and the TGI (OVCAR-5 ovarian) was > 150 µM. The TGI (MALME-3M melanoma) was > 150 µM, the TGI (RPMI-8226 leukemia) was > 150 µM and the TGI (KM20L2 colon) was > 150 µM. The TGI (DMS 114 small cell lung) was > 150 µM, the TGI (NCI-H522 lung) was > 150 µM and the TGI (COLO 205 colon) was > 150 µM. The TGI (KM12 colon) was > 150 µM, the TGI (M19-MEL melanoma) was > 150 µM and the TGI (MOLT-4 leukemia) was > 150 µM. The TGI (A549 NSCLC) was > 150 µM, the TGI (CAKI-1 renal) was > 150 µM and the TGI (SN12C renal) was > 150 µM. For the same molecule, the TGI (XF 498 CNS) was > 150 µM, the TGI (P388 leukemia) was > 150 µM and the TGI (HOP-62 NSCLC) was > 150 µM.
